Measurements published in patent US20140242151A1, “ADHESIVE SKIN PATCH” (Sekisui Chemical Co., Ltd., priority 2003, published 2014).

Conditions: for Stable dissolution in resolvents of the invention: in 2-octyl-1-dodecanol, 2-hexyl-1-decanol, isostearyl alcohol or oleyl alcohol, temperature range of 4 to 50° C.
Procedure: 50 or 150 parts by weight of tulobuterol was added to each of the following resolvents in such a manner that the total amount of an obtained tulobuterol solution became 1000 parts by weight: 2-octyl-1-dodecanol (manufactured by Cognis Japan Ltd., under the trade name of “EUTANOL G”), 2-hexyl-1-decanol (manufactured by Cognis Japan Ltd., under the trade name of “EUTANOL G16N”), isostearyl alcohol (manufactured by Kokyu Alcohol Kogyo Co., Ltd., under the trade name of “Isostearyl Alcohol EX”), oleyl alcohol (manufactured by Kokyu Alcohol Kogyo Co., Ltd., under the trade name of “Oleyl Alcohol VP”), cetanol (hexadecyl alcohol) (manufactured by NOF Corporation, under the trade name of “NAA-44”), isopropyl myristate (manufactured by Nikko Chemicals Co., Ltd., under the trade name of “IPM-100”), decyl oleate (manufactured by Cognis Japan Ltd., under the trade name of “CETIOL V”), medium chain triglyceride (manufactured by NOF Corporation, under the trade name of “PANACET 800”), polyethylene glycol (manufactured by Maruishi Pharmaceutical Co., Ltd., under the trade name of “MACROGOL 400 (Japanese Pharmacopoeia)”), propylene glycol (manufactured by Maruishi Pharmaceutical Co., Ltd., under the trade name of “Propylene Glycol (Japanese Pharmacopoeia)”), and liquid paraffin (manufactured by Sankei Sangyo K.K., under the trade name of “Liquid Paraffin No. 350”). Each of the thus obtained tulobuterol solutions was kept at 50° C. for 120 minutes, and was then kept at 20° C. for 24 hours, and was further kept at 4° C. for 24 hours.
At this time, the tulobuterol solution was visually observed to see whether crystalline tulobuterol was deposited or not after the completion of each warming of the tulobuterol solution at 50, 20 or 4° C. The results are shown in Table 1 wherein the mark “◯” represents a case where crystalline tulobuterol was not observed, and the mark “X” represents a case where crystalline tulobuterol was observed.
The solubility of each of these drugs in these resolvents was determined in the same manner as in a case where the solubility of tulobuterol in these resolvents was determined.
50 or 150 parts by weight of tyramine (manufactured by Tokyo Chemical Industries Co., Ltd.) was added to each of the above-mentioned resolvents (i.e., 2-octyl-1-dodecanol, isopropyl myristate, polyethylene glycol, and propylene glycol) in such a manner that the total amount of an obtained tyramine solution became 1000 parts by weight. The solubility of tyramine in these resolvents was determined in the same manner as in a case where the solubility of tulobuterol in these resolvents was determined.

Stable dissolution in resolvents of the invention	Dissolution in cetanol (resolvent cetanol, solution kept at 50° C.)	Structure (SMILES)
not stably dissolved	–	N[C@@H](Cc1ccccc1)C(=O)O [phenylalanine]
stably dissolved	completely dissolved	CC(C)(C)NCC(O)c1ccccc1Cl (stereo not shown) [tulobuterol]
not stably dissolved	–	NCCc1ccc(O)cc1 [tyramine]

Further lines, the molecule ahead of its results:

Structure (SMILES)	Stable dissolution in resolvents of the invention	Dissolution in cetanol (resolvent cetanol, solution kept at 50° C.)
CNC[C@H](O)c1ccc(O)c(O)c1 [epinephrine]	not stably dissolved	–
CCCCOC(=O)[C@@H](N)Cc1ccc(O)c(O)c1 [levodopa butyl ester]	not stably dissolved	–
CCOc1ccc(NC(C)=O)cc1 [phenacetin]	not stably dissolved	–
